Data: patent US20170355705A1 (GlaxoSmithKline Intellectual Property (No.2) Limited, priority 2014, published 2017)
Like-named read-outs stand apart in the source and are kept apart here.

Target: T1, SIRT1 (Homo sapiens, UniProt Q96EB6)
T1 sequence (Q96EB6 1-747): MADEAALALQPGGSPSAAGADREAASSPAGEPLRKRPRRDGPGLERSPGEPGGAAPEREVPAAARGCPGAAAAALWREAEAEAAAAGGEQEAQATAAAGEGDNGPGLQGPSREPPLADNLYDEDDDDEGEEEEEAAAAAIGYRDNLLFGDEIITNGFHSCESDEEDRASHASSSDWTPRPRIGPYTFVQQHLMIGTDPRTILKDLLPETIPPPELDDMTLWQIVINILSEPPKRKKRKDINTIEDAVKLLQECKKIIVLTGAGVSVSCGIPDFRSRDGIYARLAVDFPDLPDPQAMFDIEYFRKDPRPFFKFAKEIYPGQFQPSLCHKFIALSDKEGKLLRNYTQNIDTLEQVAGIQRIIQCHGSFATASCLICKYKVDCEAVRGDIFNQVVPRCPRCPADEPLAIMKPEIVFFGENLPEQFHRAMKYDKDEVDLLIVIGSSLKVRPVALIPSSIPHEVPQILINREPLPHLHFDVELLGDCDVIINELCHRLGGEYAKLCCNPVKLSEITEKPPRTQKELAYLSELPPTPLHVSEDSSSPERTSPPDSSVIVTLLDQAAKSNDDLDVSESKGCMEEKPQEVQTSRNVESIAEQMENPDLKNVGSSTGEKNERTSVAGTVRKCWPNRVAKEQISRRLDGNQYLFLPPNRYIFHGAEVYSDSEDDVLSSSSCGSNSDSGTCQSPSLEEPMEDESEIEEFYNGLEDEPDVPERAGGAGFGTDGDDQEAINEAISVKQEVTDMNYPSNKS
Experiment: Trp mass spectrometry assay of SIRT1 activity (EC1.5, percent maximum activation)
Format: biochemical
Outline: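 N-terminal His-tagged human SIRT1, expressed in BL21(DE3) and purified, was incubated 25 min with an acetylated Trp peptide and NAD plus test compound at varying concentrations, then quenched with formic acid. OAADPR or deacetylated peptide was quantified by mass spectrometry versus compound-free control; EC1.5 is the concentration giving 50% activity increase, with percent maximum activation.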

[1] = Trp mass spectrometry assay, EC1.5 = concentration giving 150% activation of SIRT1
[2] = Trp mass spectrometry assay, percent maximum activation of SIRT1
[3] = Trp mass spectrometry assay, 0.5 μM peptide substrate, 120 μM βNAD+, 10 nM SIRT1, 25 minutes at 25° C.

O=C(Nc1ccnc(OC[C@@H](O)CO)c1)N1c2nc(-c3cnn(C4CC4)c3)c(Cl)cc2N2CC[C@H]1C2 [Example 102, (4S)-8-chloro-7-(1-cyclopropyl-1H-pyrazol-4-yl)-N-(2-((S)-2,3-dihydroxypropoxy)pyridin-4-yl)-3,4-dihydro-1,4-methanopyrido[2,3-b][1,4]diazepine-5(2H)-carboxamide]
TRP Activity (EC1.5) [1]: B (EC1.5 1-25 μM) | TRP MAX RESP (percent maximum fold activation) [2]: A (Fold activation ≧150%)

Cc1cc(-c2ccc3c(n2)N(C(=O)Nc2cnccn2)[C@H]2CCN3C2)cc(C(F)(F)F)n1 [Example 223, (4S)-7-(2-methyl-6-(trifluoromethyl)pyridin-4-yl)-N-(pyrazin-2-yl)-3,4-dihydro-1,4-methanopyrido[2,3-b][1,4]diazepine-5(2H)-carboxamide]
TRP Activity (EC1.5, concentration of test compound that results in 150% activation of SIRT1) [3]: A (EC1.5<1 μM) | TRP MAX RESP (percent maximum fold activation) [3]: A (Fold activation ≧150%)

Cc1cc(-c2nc3c(cc2Br)N2CC[C@@H](C2)N3C(=O)Nc2cccnc2)ccn1 [Example 12, (4S)-8-bromo-7-(2-methylpyridin-4-yl)-N-(pyridin-3-yl)-3,4-dihydro-1,4-methanopyrido[2,3-b][1,4]diazepine-5(2H)-carboxamide]
TRP Activity (EC1.5) [1]: B (EC1.5 1-25 μM) | TRP MAX RESP (percent maximum fold activation) [2]: A (Fold activation ≧150%)

Cc1ccc2c(NC(=O)N3c4nc(-c5cccc(C(F)(F)F)c5)c(Cl)cc4N4CC[C@H]3C4)n[nH]c2n1 [Example 88, (4S)-8-chloro-N-(6-methyl-1H-pyrazolo[3,4-b]pyridin-3-yl)-7-(3-(trifluoromethyl)phenyl)-3,4-dihydro-1,4-methanopyrido[2,3-b][1,4]diazepine-5(2H)-carboxamide]
TRP Activity (EC1.5) [1]: A (EC1.5<1 μM) | TRP MAX RESP (percent maximum fold activation) [2]: A (Fold activation ≧150%)

Cc1cc(-c2nc3c(cc2Cl)N2CC[C@@H](C2)N3C(=O)Nc2ccnc(O[C@H]3CCOC3)n2)ccn1 [Example 20, (4S)-8-chloro-7-(2-methylpyridin-4-yl)-N-(2-(((S)-tetrahydrofuran-3-yl)oxy)pyrimidin-4-yl)-3,4-dihydro-1,4-methanopyrido[2,3-b][1,4]diazepine-5(2H)-carboxamide]
TRP Activity (EC1.5) [1]: C (EC1.5>25 μM) | TRP MAX RESP (percent maximum fold activation) [2]: A (Fold activation ≧150%)

O=C(Nc1cncc(OCCO)n1)N1c2nc(-c3cccc(C(F)(F)F)c3)c(Cl)cc2N2CC[C@H]1C2 [Example 69, (4S)-8-chloro-N-(6-(2-hydroxyethoxy)pyrazin-2-yl)-7-(3-(trifluoromethyl)phenyl)-3,4-dihydro-1,4-methanopyrido[2,3-b][1,4]diazepine-5(2H)-carboxamide]
TRP Activity (EC1.5) [1]: A (EC1.5<1 μM) | TRP MAX RESP (percent maximum fold activation) [2]: A (Fold activation ≧150%)

Cc1cc(-c2nc3c(cc2Cl)N2CC[C@@H](C2)N3C(=O)Nc2cccnc2)ccn1 [Example 210, (9S)-4-chloro-5-(2-methylpyridin-4-yl)-N-(pyridin-3-yl)-1,6,8-triazatricyclo[7.2.1.0{2,7}]dodeca-2,4,6-triene-8-carboxamide]
TRP Activity (EC1.5, concentration of test compound that results in 150% activation of SIRT1) [3]: B (EC1.5 1-25 μM) | TRP MAX RESP (percent maximum fold activation) [3]: A (Fold activation ≧150%)

O=C(Nc1cc(OC[C@H](O)CO)ccn1)N1c2nc(-c3cccc(C(F)(F)F)c3)c(Cl)cc2N2CC[C@H]1C2 [Example 31, (4S)-8-chloro-N-(4-((R)-2,3-dihydroxypropoxy)pyridin-2-yl)-7-(3-(trifluoromethyl)phenyl)-3,4-dihydro-1,4-methanopyrido[2,3-b][1,4]diazepine-5(2H)-carboxamide]
TRP Activity (EC1.5) [1]: B (EC1.5 1-25 μM) | TRP MAX RESP (percent maximum fold activation) [2]: A (Fold activation ≧150%)

Cc1cc(-c2nc3c(cc2Cl)N2CC[C@@H](C2)N3C(=O)Nc2cc(OC[C@@H](O)CO)ccn2)ccn1 [Example 27, (4S)-8-chloro-N-(4-((S)-2,3-dihydroxypropoxy)pyridin-2-yl)-7-(2-methylpyridin-4-yl)-3,4-dihydro-1,4-methanopyrido[2,3-b][1,4]diazepine-5(2H)-carboxamide]
TRP Activity (EC1.5) [1]: B (EC1.5 1-25 μM) | TRP MAX RESP (percent maximum fold activation) [2]: A (Fold activation ≧150%)

O=C(Nc1ccnc(OCC(O)CO)c1)N1c2nc(-c3cnn(CC(F)(F)F)c3)c(Cl)cc2N2CC[C@H]1C2 (stereo in doubt) [Example 371, (4S)-8-chloro-N-(2-((R)-2,3-dihydroxypropoxy)pyridin-4-yl)-7-(1-(2,2,2-trifluoroethyl)-1H-pyrazol-4-yl)-3,4-dihydro-1,4-methanopyrido[2,3-b][1,4]diazepine-5(2H)-carboxamide]
TRP Activity (EC1.5, concentration of test compound that results in 150% activation of SIRT1) [3]: B (EC1.5 1-25 μM) | TRP MAX RESP (percent maximum fold activation) [3]: A (Fold activation ≧150%)

Cc1cc(-c2ccc3c(n2)N(C(=O)Nc2ccc4c(c2)OCO4)[C@H]2CCN3C2)ccn1 [Example 195, (4S)-N-(benzo[d][1,3]dioxol-5-yl)-7-(2-methylpyridin-4-yl)-3,4-dihydro-1,4-methanopyrido[2,3-b][1,4]diazepine-5(2H)-carboxamide]
TRP Activity (EC1.5) [1]: A (EC1.5<1 μM) | TRP MAX RESP (percent maximum fold activation) [2]: A (Fold activation ≧150%)

O=C(Nc1cnccn1)N1c2nc(-c3ccn[nH]3)ccc2N2CC[C@H]1C2 [Example 176, (4S)-N-(pyrazin-2-yl)-7-(1H-pyrazol-5-yl)-3,4-dihydro-1,4-methanopyrido[2,3-b][1,4]diazepine-5(2H)-carboxamide]
TRP Activity (EC1.5) [1]: B (EC1.5 1-25 μM) | TRP MAX RESP (percent maximum fold activation) [2]: A (Fold activation ≧150%)

O=C(Nc1cc(OC[C@H](O)CO)ncn1)N1c2nc(-c3cccc(C(F)(F)F)c3)c(Cl)cc2N2CC[C@H]1C2 [Example 24, (4S)-8-chloro-N-(6-((R)-2,3-dihydroxypropoxy)pyrimidin-4-yl)-7-(3-(trifluoromethyl)phenyl)-3,4-dihydro-1,4-methanopyrido[2,3-b][1,4]diazepine-5(2H)-carboxamide]
TRP Activity (EC1.5) [1]: B (EC1.5 1-25 μM) | TRP MAX RESP (percent maximum fold activation) [2]: A (Fold activation ≧150%)

Cc1cc(-c2nc3c(cc2Cl)N2CC[C@@H](C2)N3C(=O)Nc2cc(OC[C@@H](O)CO)ncn2)ccn1 [Example 44, (4S)-8-chloro-N-(6-((S)-2,3-dihydroxypropoxy)pyrimidin-4-yl)-7-(2-methylpyridin-4-yl)-3,4-dihydro-1,4-methanopyrido[2,3-b][1,4]diazepine-5(2H)-carboxamide]
TRP Activity (EC1.5) [1]: C (EC1.5>25 μM) | TRP MAX RESP (percent maximum fold activation) [2]: B (Fold Activation <150%)

Cc1cc(-c2ccc3c(n2)N(C(=O)Nc2cn(C)nn2)[C@H]2CCN3C2)ccn1 [Example 138, (4S)-N-(1-methyl-1H-1,2,3-triazol-4-yl)-7-(2-methylpyridin-4-yl)-3,4-dihydro-1,4-methanopyrido[2,3-b][1,4]diazepine-5(2H)-carboxamide]
TRP Activity (EC1.5) [1]: B (EC1.5 1-25 μM) | TRP MAX RESP (percent maximum fold activation) [2]: A (Fold activation ≧150%)

Cc1cc(-c2nc3c(cc2Cl)N2CC[C@@H](C2)N3C(=O)Nc2cncc(OC[C@@H](O)CO)c2)ccn1 [Example 110, (4S)-8-chloro-N-(5-((S)-2,3-dihydroxypropoxy)pyridin-3-yl)-7-(2-methylpyridin-4-yl)-3,4-dihydro-1,4-methanopyrido[2,3-b][1,4]diazepine-5(2H)-carboxamide]
TRP Activity (EC1.5) [1]: B (EC1.5 1-25 μM) | TRP MAX RESP (percent maximum fold activation) [2]: A (Fold activation ≧150%)

CNc1cc(-c2ccc3c(n2)N(C(=O)Nc2cnccn2)[C@H]2CCN3C2)ccn1 [Example 144, (4S)-7-(2-(methylamino)pyridin-4-yl)-N-(pyrazin-2-yl)-3,4-dihydro-1,4-methanopyrido[2,3-b][1,4]diazepine-5(2H)-carboxamide]
TRP Activity (EC1.5) [1]: B (EC1.5 1-25 μM) | TRP MAX RESP (percent maximum fold activation) [2]: A (Fold activation ≧150%)

Cc1ccc(-c2nc3c(cc2F)N2CC[C@@H](C2)N3C(=O)Nc2cccnc2)cn1 [Example 7, (4S)-8-fluoro-7-(6-methylpyridin-3-yl)-N-(pyridin-3-yl)-3,4-dihydro-1,4-methanopyrido[2,3-b][1,4]diazepine-5(2H)-carboxamide]
TRP Activity (EC1.5): B (key: A: EC1.5<1 μM; B: EC1.5 1-25 μM; EC1.5>25 μM) | TRP MAX RESP (percent maximum fold activation): A (key: A: Fold activation ≧150%; B: Fold Activation <150%)

O=C(Nc1ccnc(OC[C@@H](O)CO)c1)N1c2nc(-c3ccnc(C(F)(F)F)c3)c(Cl)cc2N2CC[C@H]1C2 [Example 108, (4S)-8-chloro-N-(2-((S)-2,3-dihydroxypropoxy)pyridin-4-yl)-7-(2-(trifluoromethyl)pyridin-4-yl)-3,4-dihydro-1,4-methanopyrido[2,3-b][1,4]diazepine-5(2H)-carboxamide]
TRP Activity (EC1.5) [1]: B (EC1.5 1-25 μM) | TRP MAX RESP (percent maximum fold activation) [2]: A (Fold activation ≧150%)
